Measured values reported in PubChem BioAssay AID859 (Vanderbilt High Throughput Screening Facility, 2007).

The compounds below were run against Muscarinic acetylcholine receptor M1 (Rattus norvegicus) (UniProt P08482) (assay: M1 inhibitors against agonist EC80 response – cell-based, calcium fluorescence, dose response (AID 859)). Settings: M1-expressing cells, antagonist mode vs EC80.
Chain of Muscarinic acetylcholine receptor M1 (Rattus norvegicus) (P08482 whole entry, looked up): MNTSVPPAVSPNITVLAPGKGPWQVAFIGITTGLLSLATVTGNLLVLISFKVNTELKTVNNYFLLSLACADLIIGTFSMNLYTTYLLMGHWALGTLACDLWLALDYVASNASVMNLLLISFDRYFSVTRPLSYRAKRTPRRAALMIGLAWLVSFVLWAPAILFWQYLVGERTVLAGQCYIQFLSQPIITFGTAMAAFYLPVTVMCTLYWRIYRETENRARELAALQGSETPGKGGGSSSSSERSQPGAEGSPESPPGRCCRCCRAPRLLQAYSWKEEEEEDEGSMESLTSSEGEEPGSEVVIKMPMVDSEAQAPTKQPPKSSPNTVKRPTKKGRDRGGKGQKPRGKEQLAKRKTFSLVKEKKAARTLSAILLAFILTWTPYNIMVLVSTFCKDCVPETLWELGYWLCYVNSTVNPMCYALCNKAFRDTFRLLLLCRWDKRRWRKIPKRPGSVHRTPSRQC

Point of comparison: `CCN1CCN(Cc2cc(=O)oc3cc(C)cc(C)c23)CC1`, IC50 974 nM. Against it:
- CCN1C(=O)/C(=C\N2CCCCCC2)SC1=S — 2.2-fold lower, 438 nM
- c1ccc(-c2cc(-c3nnc4sc(-c5ccccn5)nn34)[nH]n2)cc1 — 2.4-fold lower, 414 nM
- CN1CCC(OC(=O)C2c3ccccc3Oc3ccccc32)CC1 — 110-fold lower, 9.27 nM
- CCCC(CCC)C(=O)OC1C[C@H]2CC[C@@H](C1)[N+]2(C)C (stereo partly specified) — 3.2-fold lower, 302 nM
- Cc1ccc2c(c1)NC(=O)C(CC(=O)Nc1ccc(CN3CCC(C)CC3)cc1)O2 (stereo unspecified) — 3.4-fold lower, 290 nM
- Cc1cccc(Cn2c(Sc3nc(C)cs3)nc3c2c(=O)[nH]c(=O)n3C)c1 — 48-fold lower, 20.2 nM
- OC(CCN1CCCCC1)(c1ccccc1)c1ccccc1 — 17-fold lower, 58 nM
- Cc1onc(-c2ccccc2Cl)c1C(=O)Nc1ccc(-c2nnc3n2CCCCC3)cc1 — 2-fold lower, 491 nM
- COC(=O)Nc1ccc2c(c1)N(C(=O)CCN1CCOCC1)c1ccccc1S2 — within 1.5-fold, 1060 nM
- Cc1ccc2nc(NC3=NCN(CCN4CCOCC4)CN3)nc(C)c2c1 — 350-fold lower, 2.77 nM
- Cc1c(C(=O)OC(C)CCN(C)C)oc2ccccc12 (stereo unspecified) — within 1.5-fold, 681 nM
- CNCCCC1c2ccccc2C=Cc2ccccc21 — within 1.5-fold, 1260 nM
- CN1CCCN=C1COC(=O)C(O)(c1ccccc1)C1CCCCC1 (stereo unspecified) — 77-fold lower, 12.6 nM
- CC1CCN(Cc2ccc(NC(=O)CC3Oc4ccccc4NC3=O)cc2)CC1 (stereo unspecified) — 4.2-fold lower, 234 nM
- O=C(CN1CCN(CCOCCO)CC1)N1c2ccccc2Sc2ccc(Cl)cc21 — within 1.5-fold, 1030 nM
- CC[N+]1(C)CCCC(OC(=O)C(O)(c2ccccc2)c2ccccc2)C1 (stereo unspecified) — 61-fold lower, 15.9 nM
- CCOc1nc(C#N)nc(N2CCCCC2)n1 — within 1.5-fold, 1350 nM
- O=C(CN1CCCC(O)C1)N1c2ccccc2Sc2ccc(C(F)(F)F)cc21 (stereo unspecified) — within 1.5-fold, 766 nM
- CN1CCN(C2=Nc3ccccc3Oc3ccc(Cl)cc32)CC1 — within 1.5-fold, 1210 nM
- Clc1ccc(OCc2nnc(SCCN3CCCCC3)n2Cc2ccco2)cc1 — within 1.5-fold, 1400 nM
- O=C(OCCN1CCCC1)C1(c2ccccc2)CCCC1 — 5.4-fold lower, 182 nM
- CCN(CC)CCOC(=O)C(c1ccccc1)c1ccccc1 — 3-fold lower, 327 nM
- CN(C)CCOC(=O)C(c1ccccc1)C1(O)CCCC1 (stereo unspecified) — 38-fold lower, 25.7 nM
- O=C1CC(N2CCN(c3ccc(S(=O)(=O)N4CCOCC4)cc3)CC2)C(=O)N1Cc1ccccc1 (stereo unspecified) — within 1.5-fold, 777 nM
- O=C1CC(N2CCN(C/C=C/c3ccccc3)CC2)C(=O)N1Cc1cccs1 (stereo unspecified) — within 1.5-fold, 846 nM
- C=CCSc1nnc2c(n1)OC(c1cccnc1)N(C(C)=O)c1ccccc1-2 (stereo unspecified) — 5.1-fold lower, 190 nM
- CN(C)CCCOC(=O)C1c2ccccc2Oc2ccccc21 — 15-fold lower, 63.7 nM
- CN1CCN(CCC(C#N)(c2ccccc2)c2ccccc2)CC1 — 2.5-fold lower, 395 nM
- OC(CCN1CCCC1)(c1ccccc1)C1CCCCC1 (stereo unspecified) — 8.4-fold lower, 116 nM
- CCN(CCCCOC(=O)c1ccc(OC)c(OC)c1)C(C)Cc1ccc(OC)cc1 (stereo unspecified) — within 1.5-fold, 1160 nM
- CN(C)CCC=C1c2ccccc2CCc2ccccc21 — 1.5-fold lower, 637 nM
- CCC(C)N(CCNC(=O)CC1Oc2ccc(C)cc2NC1=O)C1CCCCC1 (stereo unspecified) — within 1.5-fold, 1000 nM
- CCOC(=O)Nc1ccc2c(c1)N(C(=O)N1CCN(C)CC1)c1ccccc1S2 — within 1.5-fold, 1410 nM
- Cn1cc(CN2CCN(c3ccccc3)CC2)c2ccccc21 — 4.3-fold lower, 226 nM
- Cc1nc2c(o1)CCc1ccccc1C2N1CCN(C)CC1 (stereo unspecified) — 21-fold lower, 46.4 nM
